Consider one compound from patent US11969440B2, “Metal (hydr)oxide composite comprising poorly soluble drug, method for manufacturing same, and pharmaceutical composition comprising same” (priority 2020, dated 2024).

The conditions of series [1]: single oral 40 mg/kg, MgO:HPMC compositions of Comparative Examples 2 to 4, FIG. 41 to 43.
For series [2] the following is noted: cited from earlier work.

≈ marks a conversion by molar mass, not a printed value.

`O=c1[nH]cc(F)c(=O)[nH]1` [Example 5-FU, 5-FU]: the “bioavailability of the compound as MgO composite versus the compound alone” value in series [1] is reported as “not improved”. Also, the solubility in water in series [2] was 12.2 mg/mL (≈ 93.8 mM).
